Data from patent US8092841B2.

Experiments:
ERβ [1] = target: T1, ERβ (Homo sapiens, UniProt Q92731); details: in the presence of ERβ
Text: (§1) Plasmid Construction. […] ERβ mutants were created with QuikChange site-directed mutagenesis kits (Stratagene), by using oligonucleotides containing the mutation. The mutants were sequenced with Sequenase kits (Amersham Pharmacia) to verify the presence of the mutation.

ERβ [2] = target: T1, ERβ; assay: TNF-RE tkLuc repression, U2OS cells with ERβ; format: cell-based; design: expressed in transfected cells; host or cells: U2OS (human osteosarcoma)
TNF-RE tkLuc = assay: Activation of TNF-RE tkLuc reporter (Example 2); format: cell-based; details: for activation of TNF-RE tkLuc by antiestrogens: in contrast to E2
Text: as §1

breast cancer [3] = details: among the 5129 women in the raloxifene treatment group, median follow-up of 40 months; cited from earlier work
breast cancer [4] = details: five years of tamoxifen therapy; cited from earlier work
breast cancer [5] = details: women at high risk for breast cancer; cited from earlier work

T1 sequence (Q92731 whole entry): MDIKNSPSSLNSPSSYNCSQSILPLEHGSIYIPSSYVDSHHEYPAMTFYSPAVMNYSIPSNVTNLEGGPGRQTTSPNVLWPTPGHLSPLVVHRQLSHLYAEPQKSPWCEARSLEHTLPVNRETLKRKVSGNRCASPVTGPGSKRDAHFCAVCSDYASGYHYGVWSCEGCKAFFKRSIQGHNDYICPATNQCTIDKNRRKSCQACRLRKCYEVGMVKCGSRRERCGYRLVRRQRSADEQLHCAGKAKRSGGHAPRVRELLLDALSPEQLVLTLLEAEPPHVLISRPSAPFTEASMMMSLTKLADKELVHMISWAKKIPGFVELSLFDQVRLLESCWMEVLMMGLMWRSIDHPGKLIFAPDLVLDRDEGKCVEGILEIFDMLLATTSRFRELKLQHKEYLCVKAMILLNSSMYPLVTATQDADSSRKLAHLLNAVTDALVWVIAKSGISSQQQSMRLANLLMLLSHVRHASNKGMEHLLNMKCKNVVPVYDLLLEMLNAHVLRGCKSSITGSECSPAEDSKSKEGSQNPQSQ

Compound: C[C@]12CC[C@@H]3c4ccc(O)cc4CC[C@H]3[C@@H]1CC[C@@H]2O [E2, estradiol]
- repression of TNF-α activation of TNF-RE tkLuc (ERβ [1]): 60-80%
- repression of TNF-α activation of TNF-RE (ERβ [2]): 100%

Compound: C[C@]12CC[C@@H]3c4ccc(O)cc4C[C@@H](CCCCCCCCC[S+]([O-])CCCC(F)(F)C(F)(F)F)[C@H]3[C@@H]1CC[C@@H]2O (stereo partly shown) [ICI 182, 780]
- activation of TNF-RE tkLuc by antiestrogens (TNF-RE tkLuc): 2 fold

Compound: O=C(c1ccc(OCCN2CCCCC2)cc1)c1c(-c2ccc(O)cc2)sc2cc(O)ccc12 [raloxifene]
- activation of TNF-RE tkLuc by antiestrogens (TNF-RE tkLuc): 2 fold
- cases of breast cancer (breast cancer [3]): 13 cases

Compound: CC/C(=C(\c1ccccc1)c1ccc(OCCN(C)C)cc1)c1ccccc1 [tamoxifen]
- activation of TNF-RE tkLuc by antiestrogens (TNF-RE tkLuc): 2 fold
- reduction of mortality from breast cancer (breast cancer [4]): 22%
- reduction of the risk of recurrences (breast cancer [4]): 42%
- reduction of the risk of primary invasive breast cancer (breast cancer [5]): 49%

Compound: TNF-α
- activation of 3 copies of the TNF-RE (−125 to −82) upstream of the tk promoter (TNF-RE tkLuc; TNF-RE tkLuc): 5-10 fold
